The values that follow come from patent US20230183219A1, “CONDENSED SUBSTITUTED HYDROPYRROLES AS ANTAGONISTS OF THE MUSCARINIC ACETYLCHOLINE RECEPTOR M4” (Vanderbilt University, priority 2020, published 2023).

Molecules are shown by their SMILES.

This assay addresses T1, Human M4 (Homo sapiens, UniProt P08173).
T1 construct: Human or rat M4 cDNA, along with the chimeric G protein Gqi5, were transfected into Chinese hamster ovary (CHO-K1) cells; expressed in transfected cells; host or cells: CHO-K1 (Chinese hamster ovary, ATCC), stably co-expressing Gqi5
T1 sequence (P08173 1-479): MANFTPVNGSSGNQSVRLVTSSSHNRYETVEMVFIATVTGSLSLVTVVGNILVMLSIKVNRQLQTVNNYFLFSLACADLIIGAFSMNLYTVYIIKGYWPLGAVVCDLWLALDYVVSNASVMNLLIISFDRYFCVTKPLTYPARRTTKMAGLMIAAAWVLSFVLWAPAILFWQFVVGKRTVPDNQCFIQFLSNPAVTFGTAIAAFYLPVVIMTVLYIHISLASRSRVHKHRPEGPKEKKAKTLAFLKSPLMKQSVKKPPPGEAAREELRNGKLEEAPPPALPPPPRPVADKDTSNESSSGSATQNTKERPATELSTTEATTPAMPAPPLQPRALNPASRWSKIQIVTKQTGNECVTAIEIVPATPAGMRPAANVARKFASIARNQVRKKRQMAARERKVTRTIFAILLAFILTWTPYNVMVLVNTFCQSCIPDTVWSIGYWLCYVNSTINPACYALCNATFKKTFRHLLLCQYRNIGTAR
The assay is described as follows: mAChR M4 cell-based functional assay (calcium flux, decrease of EC80 acetylcholine response). Particulars: for remaining activity at 30 µM: % ACh maximum at 30 μM, read-out: Human M4 Emin; for IC50: M4/Gqi5/CHO-K1 cells, decrease of response to EC80 acetylcholine. A digest of the protocol: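 CHO-K1 cells stably co-expressing M4 and chimeric Gqi5, loaded with Fluo-4 AM; calcium flux read on FDSS. Compound added at 2 s, EC20 acetylcholine at 143 s, EC80 acetylcholine at 268 s. IC50 from concentration-dependent decrease of the EC80 response, four-parameter logistic fit; 10-point 1:3 titrations.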

Regarding `[2H]C([2H])(C1CCOCC1)N1C[C@H]2C[C@H](Nc3nnc(-c4cc(F)ccc4F)cc3C(F)(F)F)C[C@H]2C1` [Example 50, (3aR,5s,6aS)-N-(6-(2,5-difluorophenyl)-4-(trifluoromethyl)pyridazin-3-yl)-2-((tetrahydro-2H-pyran-4-yl)methyl-d2)octahydro-cyclopenta[c]pyrrol-5-amine], the remaining activity at 30 µM worked out at 3% and the IC50 (as a rule, the concentration that inhibits the measured activity by half) was 144 nM.

With `N#Cc1cc(-c2cc(F)ccc2Cl)nnc1N[C@H]1C[C@@H]2CN(CC3CCOCC3)C[C@@H]2C1` [Example 145, 6-(2-chloro-5-fluorophenyl)-3-(((3aR,5s,6aS)-2-((tetrahydro-2H-pyran-4-yl)methyl)octahydro-cyclopenta[c]pyrrol-5-yl)amino)pyridazine-4-carbonitrile], the remaining activity at 30 µM is 3% and the IC50 was found to be 1.4 nM.

As for `CCc1ccc(F)c(-c2cc(C(F)(F)F)c(N[C@H]3C[C@@H]4CN(CC5CCOCC5)C[C@@H]4C3)nn2)c1` [Example 95, (3aR,5s,6aS)-N-(6-(5-ethyl-2-fluorophenyl)-4-(trifluoromethyl)pyridazin-3-yl)-2-((tetrahydro-2H-pyran-4-yl)methyl)octahydro-cyclopenta[c]pyrrol-5-amine], the remaining activity at 30 µM amounted to 3% and the IC50 came to 931 nM.

On to `Cn1cnc2ccc(-c3cc(C(F)(F)F)c(N[C@H]4C[C@@H]5CN(CC6CCOCC6)C[C@@H]5C4)nn3)cc21` [Example 76, (3aR,5s,6aS)-N-(6-(1-methyl-1H-benzo[d]imidazol-6-yl)-4-(trifluoromethyl)pyridazin-3-yl)-2-((tetrahydro-2H-pyran-4-yl)methyl)octahydro-cyclopenta[c]pyrrol-5-amine], for which the remaining activity at 30 µM was 3% and the 50% inhibitory concentration (IC50) came out at 93.8 nM.

Take `Cn1cc2cc(-c3cc(C(F)(F)F)c(N[C@H]4C[C@@H]5CN(CC6CCCOC6)C[C@@H]5C4)nn3)ccc2n1` (single isomer, unassigned) [Example 36]: the remaining activity at 30 µM stood at 4% and the IC50 was determined as 99.7 nM.

Take `FC1(F)CCCN(c2cc(C(F)(F)F)c(N[C@H]3C[C@@H]4CN(CC5CCOCC5)C[C@@H]4C3)nn2)C1` [Example 138, (3aR,5s,6aS)-N-(6-(3,3-difluoro-piperidin-1-yl)-4-(trifluoro-methyl)pyridazin-3-yl)-2-((tetrahydro-2H-pyran-4-yl)methyl)octahydro-cyclopenta[c]pyrrol-5-amine]: the remaining activity at 30 µM stood at 2% and the IC50 turned out to be 21.2 nM.

On to `Cc1ccc(-c2cc(C(F)(F)F)c(N[C@H]3C[C@@H]4CN(CC5CCOCC5)C[C@@H]4C3)nn2)c(F)c1` [Example 79, (3aR,5s,6aS)-N-(6-(2-fluoro-4-methylphenyl)-4-(trifluoromethyl)pyridazin-3-yl)-2-((tetrahydro-2H-pyran-4-yl)methyl)octahydro-cyclopenta[c]pyrrol-5-amine], for which the remaining activity at 30 µM was determined as 3% and the half-inhibitory concentration (IC50) worked out at 349 nM.

With `[2H][C@@]1(Nc2nnc(-c3cccc(F)c3)cc2C(F)(F)F)C[C@H]2CN(CC3CCOCC3)C[C@H]2C1` [Example 127, (3aR,5s,6aS)-N-(6-(3-fluoro-phenyl)-4-(trifluoromethyl)pyridazin-3-yl)-2-((tetrahydro-2H-pyran-4-yl)methyl)octahydro-cyclopenta[c]pyrrol-5-d-5-amine], the remaining activity at 30 µM turned out to be 3% and the IC50 is 64.7 nM.

Consider `Cc1ccc(F)cc1-c1cc(C#N)c(N[C@H]2C[C@@H]3CN(C[C@H]4CC5CCC4O5)C[C@@H]3C2)nn1` (stereo partly drawn) [Example 148, 3-(((3aR,5s,6aS)-2-(((2R)-7-oxabicyclo[2.2.1]heptan-2-yl)methyl)octahydro-cyclopenta[c]pyrrol-5-yl)amino)-6-(5-fluoro-2-methylphenyl)pyridazine-4-carbonitrile], for which the remaining activity at 30 µM came to 2% and the IC50 came out at 1.1 nM.

With `Cc1ccc(F)cc1-c1cc(C(F)(F)F)c(O[C@H]2C[C@@H]3CN(CC4CCOCC4)C[C@@H]3C2)nn1` [Example 132, (3aR,5s,6aS)-5-((6-(5-fluoro-2-methylphenyl)-4-(trifluoromethyl)pyridazin-3-yl)oxy)-2-((tetrahydro-2H-pyran-4-yl)methyl)octahydro-cyclopenta[c]pyrrole], the remaining activity at 30 µM is 3% and the 50% inhibitory concentration (IC50) stood at 592 nM.

On to `FC(F)(F)c1cc(-c2ccccc2)nnc1N[C@H]1C[C@@H]2CN(Cc3ccccn3)C[C@@H]2C1` [Example 102, (3aR,5s,6aS)-N-(6-phenyl-4-(trifluoro-methyl)pyridazin-3-yl)-2-(pyridin-2-ylmethyl)octahydro-cyclopenta[c]pyrrol-5-amine], for which the remaining activity at 30 µM came to 4% and the IC50 came out at 350 nM.

`COc1ccccc1-c1cc(C(F)(F)F)c(N[C@H]2C[C@@H]3CN(CC4CCOCC4)C[C@@H]3C2)nn1` [Example 64, (3aR,5s,6aS)-N-(6-(2-methoxyphenyl)-4-(trifluoromethyl)pyridazin-3-yl)-2-((tetrahydro-2H-pyran-4-yl)methyl)octahydro-cyclopenta[c]pyrrol-5-amine]: the remaining activity at 30 µM is 3% and the half-maximal inhibitory concentration (IC50) came to 54 nM.

Regarding `[2H]C([2H])(C1CCOCC1)N1C[C@H]2C[C@H](Nc3nnc(-c4ccc(OC)cc4C)cc3C(F)(F)F)C[C@H]2C1` [Example 122, (3aR,5s,6aS)-N-(6-(4-methoxy-2-methylphenyl)-4-(trifluoromethyl)pyridazin-3-yl)-2-((tetrahydro-2H-pyran-4-yl)methyl-d2)octahydro-cyclopenta[c]pyrrol-5-amine], the remaining activity at 30 µM came out at 3% and the IC50 came out at 33.2 nM.

Regarding `Cn1cc2cc(-c3cc(C(F)(F)F)c(N[C@H]4C[C@@H]5CN(C[C@@H]6CC7CCC6O7)C[C@@H]5C4)nn3)ccc2n1` (stereo partly drawn) [Example 26, (3aR,5s,6aS)-2-(((2S)-7-oxabicyclo[2.2.1]heptan-2-yl)methyl)-N-(6-(2-methyl-2H-indazol-5-yl)-4-(trifluoromethyl)pyridazin-3-yl)octahydro-cyclopenta[c]pyrrol-5-amine], the remaining activity at 30 µM is 4% and the IC50 came to 19.4 nM.

Take `Cc1cc(CN2C[C@H]3C[C@H](Nc4ncc(-c5cc(F)ccc5Cl)cn4)C[C@H]3C2)ccc1F` [Example 9, (3aR,5s,6aS)-N-(5-(2-chloro-5-fluorophenyl)pyrimidin-2-yl)-2-(4-fluoro-3-methylbenzyl)octahydro-cyclopenta[c]pyrrol-5-amine]: the remaining activity at 30 µM was found to be 27% and the IC50 is over 10000 nM.

Regarding `[2H]C([2H])(C1CCOCC1)N1C[C@H]2C[C@H](Nc3nnc(-c4cc(F)cc(F)c4F)cc3C(F)(F)F)C[C@H]2C1` [Example 124, (3aR,5s,6aS)-2-((tetrahydro-2H-pyran-4-yl)methyl-d2)-N-(4-(trifluoromethyl)-6-(2,3,5-trifluorophenyl)pyridazin-3-yl)octahydrocyclopenta[c]pyrrol-5-amine], the remaining activity at 30 µM was determined as 3% and the IC50 turned out to be 173 nM.

On to `CC(C)(C)CCN1C[C@H]2C[C@H](Nc3ncc(-c4cc(F)ccc4Cl)cn3)C[C@H]2C1` [Example 15, (3aR,5s,6aS)-N-(5-(2-chloro-5-fluorophenyl)pyrimidin-2-yl)-2-(3,3-dimethylbutyl)octahydro-cyclopenta[c]pyrrol-5-amine], for which the remaining activity at 30 µM was determined as 3% and the concentration for half-maximal inhibition (IC50) amounted to 3330 nM.

For the molecule `Cc1nn(C)c(C)c1-c1cc(C(F)(F)F)c(N[C@H]2C[C@@H]3CN(CC4CCOCC4)C[C@@H]3C2)nn1` [Example 40, (3aR,5s,6aS)-2-((tetrahydro-2H-pyran-4-yl)methyl)-N-(4-(trifluoromethyl)-6-(1,3,5-trimethyl-1H-pyrazol-4-yl)pyridazin-3-yl)octahydro-cyclopenta[c]pyrrol-5-amine], the remaining activity at 30 µM was 4% and the half-inhibitory concentration (IC50) is 184 nM.

In the case of `[2H][C@@]1(Oc2cc(C(F)(F)F)c(-c3cc(F)ccc3C)nn2)C[C@H]2CN(CC3CCOCC3)C[C@H]2C1` [Example 133, (3aR,5s,6aS)-5-((6-(5-fluoro-2-methylphenyl)-5-(trifluoromethyl)pyridazin-3-yl)oxy)-2-((tetrahydro-2H-pyran-4-yl)methyl)octahydro-cyclopenta[c]pyrrole-5-d], the remaining activity at 30 µM came out at 3% and the IC50 turned out to be 217 nM.

For the molecule `Cn1cc(-c2cc(C(F)(F)F)c(N[C@H]3C[C@@H]4CN(CC5CCOCC5)C[C@@H]4C3)nn2)cn1` [Example 66, (3aR,5s,6aS)-N-(6-(1-methyl-1H-pyrazol-4-yl)-4-(trifluoro-methyl)pyridazin-3-yl)-2-((tetrahydro-2H-pyran-4-yl)methyl)octahydro-cyclopenta[c]pyrrol-5-amine], the remaining activity at 30 µM was found to be 3% and the half-inhibitory concentration (IC50) turned out to be 119 nM.
